Measured values: patent publication US10111955B2, “PEG derivative” (priority 2014, dated 2018)

What was measured:
pancreatic cancer cells = test: Test Example 1: pancreatic cancer cells transplanted into BALB/c nude mouse, tumor volume and body weight; assay type: in vivo; conditions: 4.5 mg/kg/day × 14 days, subcutaneous continuous infusion
Protocol: 5×10^6 cells of pancreatic cancer cells were transplanted into the right abdomen of a BALB/c nude mouse, and after 7 days, at the time point at which the average tumor size reached 100 mm^3, drug administration was initiated. Up to 29 days from the time of drug administration, the body weight of the mouse and the tumor volume were measured. The results are presented in FIG. 11, FIG. 12, and Table 1. Subcutaneous continuous infusion of 1-(2′-cyano-2′-deoxy-β-D-arabinofuranosyl)cytosine hydrochloride (DFP-10917) at a dose of 4.5 mg/kg/day was continuously performed for two weeks using a micropump embedded in the body of the mouse. In contrast, Compound (1a) was intravenously administered once a week at a dose of 100 mg/kg, 200 mg/kg, or 300 mg/kg. The dosage of this Compound (1a) is administration once a week at a dose of 2.4 mg/kg, 4.8 mg/kg, or 7.2 mg/kg, as converted to […]. For the control, a buffer solution (pH=5.0) of sodium acetate was administered.

[1] = tested on: Human lung cancer cell A549 cells; test: Test Example 5 (second): human lung cancer cell A549 transplanted into nude mouse, Tables 5 and 6; assay type: in vivo, BALB/c nude mouse; conditions: once a day, for 2 weeks
Excerpt: Human lung cancer cell A549 cells were transplanted into the right abdomen of a BALB/c nude mouse, and after 11 days, at the time point at which the average tumor size reached 200 mm^3, drug administration was initiated.

[2] = tested on: human breast cancer cell BT474; test: Test Example 4: human breast cancer cell BT474 transplanted into nude mouse; assay type: in vivo, BALB/c nude mouse; conditions: 100 mg/kg once a week, total dosage 200 mg/kg
Protocol: Compound (1a) was intravenously administered once a week at a dose of 200 mg/kg (the amount as converted to DFP-10917 was 4.8 mg/kg), and pemetrexed, which is a standard drug for lung cancer, was intraperitoneally administered once a week at a dose of 300 mg/kg. For the control, physiological saline was intravenously administered once a week. The observation was made for two weeks (administered two times in total). 1×10^7 cells of human breast cancer cell BT474 were transplanted into the right abdomen of a BALB/c nude mouse, and drugs were administered in the same manner as in Test Example 3. DFP-10917 and Compound (1a) were intravenously administered once a week, two times in total. For the control, physiological saline was administered once a week.

[3] = tested on: human pancreatic cancer cell Panc-1; test: Test Example 5: human pancreatic cancer cell Panc-1 transplanted into nude mouse; assay type: in vivo, BALB/c nude mouse; conditions: 100 mg/kg iv, repeated four times, total dosage 400 mg/kg
Protocol: Compound (1a) was intravenously administered once a week at a dose of 200 mg/kg (the amount as converted to DFP-10917 was 4.8 mg/kg), and pemetrexed, which is a standard drug for lung cancer, was intraperitoneally administered once a week at a dose of 300 mg/kg. For the control, physiological saline was intravenously administered once a week. The observation was made for two weeks (administered two times in total). 5×10^6 cells of human pancreatic cancer cell Panc-1 were transplanted into the right abdomen of a BALB/c nude mouse, and drugs were administered in the same manner as in Test Example 3. Compound (1g) was intravenously administered once a week, two times in total, or twice a week. Gemcitabine was administered such that 100 mg/kg was administered in four divided portions over 3 days, and this intravenous administration was repeated four times in total. For the control, physiological saline was administered once a week.

[4] = tested on: human breast cancer cell BT474; test: Test Example 6: human breast cancer cell BT474 transplanted into nude mouse; assay type: in vivo, BALB/c nude mouse; conditions: 5 mg/kg iv, once a week, for 2 weeks
Protocol: 1×10^7 cells of human breast cancer cell BT474 were transplanted into the right abdomen of a BALB/c nude mouse, and when the tumor volume reached 100 to 150 mm^3, drugs were administered. The administration was implemented once a week for two weeks.

[5] = tested on: human lung cancer cell A549; test: Test Example 3: human lung cancer cell A549 transplanted into nude mouse; assay type: in vivo, BALB/c nude mouse; conditions: 300 mg/kg intraperitoneally once a week, total dosage 600 mg/kg, two weeks
Protocol: 5×10^6 cells of human lung cancer cell A549 were transplanted into the right abdomen of a BALE/c nude mouse, and after 14 days, at the time at which the average tumor size reached 127 mm^3, drug administration was initiated. Compound (1a) was intravenously administered once a week at a dose of 200 mg/kg (the amount as converted to DFP-10917 was 4.8 mg/kg), and pemetrexed, which is a standard drug for lung cancer, was intraperitoneally administered once a week at a dose of 300 mg/kg. For the control, physiological saline was intravenously administered once a week. The observation was made for two weeks (administered two times in total).

Compound: Cl.N#C[C@H]1[C@H](O)[C@@H](CO)O[C@H]1n1ccc(N)nc1=O [DFP-10917, 1-(2′-cyano-2′-deoxy-β-D-arabinofuranosyl)cytosine hydrochloride]
- TGI (D 29, %) tumor growth inhibition (pancreatic cancer cells): 37.7%
- Tumor Volume (D 29, mm^3) (pancreatic cancer cells; Mean ± SEM): 917 ± 72 mm^3

Compound: CCNCCNC(=O)c1c(C)[nH]c(/C=C2\C(=O)Nc3ccc(F)cc32)c1C [De-ethylated form of sunitinib]
- TGI (D 29, %) ([1]; 50 mg/kg po): 43.1%
- Tumor Volume (D 29, mm^3) ([1]; 50 mg/kg po): 687 ± 103 mm^3

Compound: Nc1ccn([C@@H]2O[C@H](CO)[C@@H](O)C2(F)F)c(=O)n1 [Gemcitabine, gemcitabine]
- TGI (tumor growth inhibition) [2]: 43
- Tumor Volume [2]: 525 ± 95
- TGI (tumor growth inhibition) [3]: 63.6
- Tumor Volume ([3]; in mm³ (unit assumed)): 370 ± 37

Compound: CS(=O)(=O)CCNCc1ccc(-c2ccc3ncnc(Nc4ccc(OCc5cccc(F)c5)c(Cl)c4)c3c2)o1 [Lapatinib, lapatinib]
- TGI (D 29, %) ([1]; 100 mg/kg po): 25.6%
- Tumor Volume (D 29, mm^3) ([1]; 100 mg/kg po): 898 ± 120 mm^3

Compound: CC(=O)O[C@H]1C(=O)[C@@]2(C)[C@H]([C@H](OC(=O)c3ccccc3)[C@]3(O)C[C@H](OC(=O)[C@H](O)[C@@H](NC(=O)c4ccccc4)c4ccccc4)C(C)=C1C3(C)C)[C@]1(OC(C)=O)CO[C@@H]1C[C@@H]2O [Paclitaxel, paclitaxel]
- TGI (D 23, %) tumor growth inhibition ratio [4]: 29.8%
- Tumor Volume (D 23, mm^3) [4]: 275 ± 39 mm^3

Compound: Nc1nc2[nH]cc(CCc3ccc(C(=O)N[C@@H](CCC(=O)O)C(=O)O)cc3)c2c(=O)[nH]1 [Pemetrexed, pemetrexed]
- TGI (tumor growth inhibition) [5]: 30
- Tumor Volume ([5]; in mm³): 818 ± 44
